Values quoted from earlier work as cited in patent US20140056804A1, “PHARMACEUTICAL COMPOUND WHICH INCLUDES CLINOPTILOLITE” (priority 2008, published 2014).

Conditions: NSAIDs such as naproxen

- patients with non-symptomatic mucosal breaks: ~80%
SMILES: COc1ccc2cc([C@H](C)C(=O)O)ccc2c1 [naproxen]
